# Laboratory results taken from patent US20250346600A1, “TRICYCLIC DERIVATIVES AND RELATED USES” (MOMA Therapeutics, Inc., priority 2023, published 2025).
# Read-outs that look alike come from different tables or passages of the source.
# How the values were obtained:
# [1] = target: T1, Full length WRN protein (aa 2-1432) (Homo sapiens (Human), UniProt Q14191); assay: WRN ATPase ADP-Glo biochemical assay, Assay Format A (10 μM ATP); details: 0.25 nM WRN, 100 nM C6.18 ssDNA, 30 min preincubation, read-out: ATPase ADPGlo AC50 (uM)- Assay Format A
# T1 sequence (Q14191 2-1432): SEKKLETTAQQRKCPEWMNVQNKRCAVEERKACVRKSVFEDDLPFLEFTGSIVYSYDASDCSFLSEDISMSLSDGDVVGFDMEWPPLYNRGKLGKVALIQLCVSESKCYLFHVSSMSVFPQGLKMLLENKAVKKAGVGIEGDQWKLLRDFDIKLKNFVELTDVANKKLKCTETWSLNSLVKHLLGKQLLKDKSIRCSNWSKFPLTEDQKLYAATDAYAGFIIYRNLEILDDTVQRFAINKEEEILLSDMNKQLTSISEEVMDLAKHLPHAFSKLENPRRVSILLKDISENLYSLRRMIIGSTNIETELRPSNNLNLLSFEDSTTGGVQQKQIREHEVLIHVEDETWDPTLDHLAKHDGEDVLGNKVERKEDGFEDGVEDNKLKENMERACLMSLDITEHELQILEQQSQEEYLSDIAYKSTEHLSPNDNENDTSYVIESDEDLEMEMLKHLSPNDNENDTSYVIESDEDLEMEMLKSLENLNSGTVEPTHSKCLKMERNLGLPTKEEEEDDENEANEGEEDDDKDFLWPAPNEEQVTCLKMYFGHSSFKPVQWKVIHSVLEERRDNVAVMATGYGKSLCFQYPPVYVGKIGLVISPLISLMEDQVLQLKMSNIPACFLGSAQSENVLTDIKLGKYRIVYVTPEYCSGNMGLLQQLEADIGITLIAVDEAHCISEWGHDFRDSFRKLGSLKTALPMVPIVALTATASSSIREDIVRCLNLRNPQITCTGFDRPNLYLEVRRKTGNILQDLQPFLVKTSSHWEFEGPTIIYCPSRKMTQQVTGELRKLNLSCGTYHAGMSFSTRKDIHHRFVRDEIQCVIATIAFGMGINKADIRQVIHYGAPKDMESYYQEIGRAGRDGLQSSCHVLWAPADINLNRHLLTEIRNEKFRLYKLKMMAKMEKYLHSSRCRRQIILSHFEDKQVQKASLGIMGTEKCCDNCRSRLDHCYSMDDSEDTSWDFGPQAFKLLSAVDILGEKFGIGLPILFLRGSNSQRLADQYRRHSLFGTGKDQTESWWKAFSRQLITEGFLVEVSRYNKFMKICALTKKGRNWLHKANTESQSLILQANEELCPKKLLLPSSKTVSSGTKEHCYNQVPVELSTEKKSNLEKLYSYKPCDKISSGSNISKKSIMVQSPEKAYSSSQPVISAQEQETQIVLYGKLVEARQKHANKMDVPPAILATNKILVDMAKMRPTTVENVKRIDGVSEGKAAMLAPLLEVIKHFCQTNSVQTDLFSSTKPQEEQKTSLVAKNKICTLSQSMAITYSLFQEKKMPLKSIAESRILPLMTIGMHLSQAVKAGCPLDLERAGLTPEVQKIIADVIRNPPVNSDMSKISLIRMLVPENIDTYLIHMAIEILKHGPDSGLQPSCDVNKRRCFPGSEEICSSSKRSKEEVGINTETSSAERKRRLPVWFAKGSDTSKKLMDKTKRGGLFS
# Method in brief: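 ADP-Glo luminescence measured hydrolysis of ATP by purified, baculovirus-expressed N-terminally tagged full-length WRN. Enzyme (0.5 nM) was preincubated 30 min with compound, then 200 nM ssDNA C6.18 plus 20 μM ATP were added (pre-mix levels) for 30 min at RT. IC50s come from four-parameter fits, geometric mean of at least two trials.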
# [2] = target: T1, Full length WRN protein (aa 2-1432); assay: WRN ATPase ADP-Glo biochemical assay, Assay Format B (100 μM ATP); details: 0.25 nM WRN, 100 nM C6.18 ssDNA, 60 min preincubation, read-out: ATPase ADPGlo AC50 (uM)- Assay Format B
# [3] = system: HCT116 cells; assay: HCT116 (MSI) 7 day viability, CellTiter Glo; assay type: cell-based; details: 7 days, read-out: HCT116 (MSI) Viability 7 Day Abs AC50
# Method in brief: (§1)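 10 mM DMSO stocks serially diluted 3-fold, 10 steps; cells added (HCT116 50/well, HT29 500/well); 7 d, 37 °C, 5% CO2; CellTiter Glo 20 min RT; luminescence.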
# [4] = system: HT29 cells; assay: HT29 (MSS) 7 day viability, CellTiter Glo; assay type: cell-based; details: 7 days, read-out: HT29 (MSS) Viability 7 Day CTGAbs AC50
# Method in brief: as §1
Compound,AC50 [1] [µM],AC50 [2] [µM],"AC50 ([3]; Homo sapiens, HCT-116, 168 h) [nM]","AC50 ([4]; Homo sapiens, HT-29, 168 h) [nM]",AC50 [3] [nM],AC50 [4] [nM]
"C=CC(=O)N1CCc2nn(-c3ccc(C4CCC4)c(F)c3)c3c2C(C1)N(C(=O)c1cnc(C(F)(F)F)c(O)c1)CC3 (stereo not drawn) [Compound 66, 1-(2-(4-cyclobutyl-3-fluorophenyl)-5-(5-hydroxy-6-(trifluoromethyl)nicotinoyl)-2,3,4,5,5a,6,8,9-octahydro-7H-1,2,5,7-tetraazabenzo[cd]azulen-7-yl)prop-2-en-1-one]",< 0.0015,0.005 to 0.015,1 to 100,> 3000,–,–
"C=CC(=O)N1CCc2nn(-c3ccc(C4CC4)c(F)c3O)c3c2C(C1)N(C(=O)c1cnc(OC(F)(F)F)c(F)c1N)CC3 (stereo not drawn) [Compound 258, 1-(5-(4-amino-5-fluoro-6-(trifluoromethoxy)nicotinoyl)-2-(4-cyclopropyl-3-fluoro-2-hydroxyphenyl)-2,3,4,5,5a,6,8,9-octahydro-7H-1,2,5,7-tetraazabenzo[cd]azulen-7-yl)prop-2-en-1-one]",0.005 to 0.015,0.015 to 0.055,1 to 100,> 3000,–,–
"C=CC(=O)N1CCc2nn(-c3ccc(C45CC(C4)C5)cc3F)c3c2C(C1)N(C(=O)c1ccc(Br)c2[nH]cnc12)CC3 (stereo not drawn) [Compound 30, 1-(2-(4-(bicyclo[1.1.1]pentan-1-yl)-2-fluorophenyl)-5-(7-bromo-1H-benzo[d]imidazole-4-carbonyl)-2,3,4,5,5a,6,8,9-octahydro-7H-1,2,5,7-tetraazabenzo[cd]azulen-7-yl)prop-2-en-1-one]",< 0.0015,0.005 to 0.015,1 to 100,> 3000,–,–
"C=CC(=O)N1CCc2nn(-c3ccc(C(F)(F)F)cc3O)c3c2C(C1)N(C(=O)c1ccc(Br)c2[nH]cnc12)CC3 (stereo not drawn) [Compound 3, 1-(5-(7-bromo-1H-benzo[d]imidazole-4-carbonyl)-2-(2-hydroxy-4-(trifluoromethyl)phenyl)-2,3,4,5,5a,6,8,9-octahydro-7H-1,2,5,7-tetraazabenzo[cd]azulen-7-yl)prop-2-en-1-one]",0.0015 to 0.005,0.015 to 0.055,1 to 100,> 3000,–,–
"C=CC(=O)N1CC(C)c2nn(-c3ccc(C(C)C)cc3O)c3c2C(C1)N(C(=O)c1ccc(Br)c2[nH]cnc12)CC3 (stereo not drawn) [Compound 31, 1-(5-(7-bromo-1H-benzo[d]imidazole-4-carbonyl)-2-(2-hydroxy-4-isopropylphenyl)-9-methyl-2,3,4,5,5a,6,8,9-octahydro-7H-1,2,5,7-tetraazabenzo[cd]azulen-7-yl)prop-2-en-1-one]",0.0015 to 0.005,0.015 to 0.055,–,> 3000,250 to 500,–
"C=CC(=O)N1CCc2nn(-c3ccc(C(C)C)c(F)c3N)c3c2C(C1)N(C(=O)c1cnc(C(F)(F)F)c(O)c1)CC3 (stereo not drawn) [Compound 57, 1-(2-(2-amino-3-fluoro-4-isopropylphenyl)-5-(5-hydroxy-6-(trifluoromethyl)nicotinoyl)-2,3,4,5,5a,6,8,9-octahydro-7H-1,2,5,7-tetraazabenzo[cd]azulen-7-yl)prop-2-en-1-one]",0.0015 to 0.005,0.015 to 0.055,100 to 250,> 3000,–,–
"C=CC(=O)N1CCc2nn(-c3ccc(C4CC4)cc3O)c3c2C(C1)N(C(=O)c1cnc(Cl)cc1N)CC3 (stereo not drawn) [Compound 196, 1-(5-(4-amino-6-chloronicotinoyl)-2-(4-cyclopropyl-2-hydroxyphenyl)-2,3,4,5,5a,6,8,9-octahydro-7H-1,2,5,7-tetraazabenzo[cd]azulen-7-yl)prop-2-en-1-one]",< 0.0015,0.005 to 0.015,1 to 100,> 3000,–,–
"C=CC(=O)N1CCc2nn(-c3ccc(C4CC4)cc3)c3c2C(C1)N(C(=O)c1ccc(OC(F)F)nc1)CC3 (stereo not drawn) [Compound 69, 1-(2-(4-cyclopropylphenyl)-5-(6-(difluoromethoxy)nicotinoyl)-2,3,4,5,5a,6,8,9-octahydro-7H-1,2,5,7-tetraazabenzo[cd]azulen-7-yl)prop-2-en-1-one]",0.005 to 0.015,0.015 to 0.055,100 to 250,> 3000,–,–
"C=CC(=O)N1CCc2nn(-c3ccc(C4CCC4)cc3O)c3c2C(C1)N(C(=O)c1ccc(C(F)(F)F)c2[nH]ncc12)CC3 (stereo not drawn) [Compound 97, 1-(2-(4-cyclobutyl-2-hydroxyphenyl)-5-(7-(trifluoromethyl)-1H-indazole-4-carbonyl)-2,3,4,5,5a,6,8,9-octahydro-7H-1,2,5,7-tetraazabenzo[cd]azulen-7-yl)prop-2-en-1-one]",< 0.0015,0.005 to 0.015,1 to 100,> 3000,–,–
"C=CC(=O)N1CCc2nn(-c3ccc(C4CCC4)cc3)c3c2C(C1)N(C(=O)c1cnc(C(F)(F)F)nc1N)CC3 (stereo not drawn) [Compound 161, 1-(5-(4-amino-2-(trifluoromethyl)pyrimidine-5-carbonyl)-2-(4-cyclobutylphenyl)-2,3,4,5,5a,6,8,9-octahydro-7H-1,2,5,7-tetraazabenzo[cd]azulen-7-yl)prop-2-en-1-one]",< 0.0015,0.005 to 0.015,1 to 100,> 3000,–,–

# Continued, in another order:
AC50 [1] [µM],AC50 [2] [µM],Compound,"AC50 ([3]; Homo sapiens, HCT-116, 168 h) [nM]","AC50 ([4]; Homo sapiens, HT-29, 168 h) [nM]",AC50 [3] [nM],AC50 [4] [nM]
0.005 to 0.015,> 0.055,"C=CC(=O)N1CCc2nn(-c3ccc(C(C)C)cc3)c3c2C(C1)N(C(=O)c1ccc(Br)c(C(C)(C)O)c1)CC3 (stereo not drawn) [Compound 102, 1-(5-(4-bromo-3-(2-hydroxypropan-2-yl)benzoyl)-2-(4-isopropylphenyl)-2,3,4,5,5a,6,8,9-octahydro-7H-1,2,5,7-tetraazabenzo[cd]azulen-7-yl)prop-2-en-1-one]",500 to 1000,> 3000,–,–
< 0.0015,0.005 to 0.015,"C=CC(=O)N1CCc2nn(-c3ccc(C4CC4)cc3O)c3c2C(C1)N(C(=O)c1ccc(Br)c2[nH]c(C(F)F)nc12)CC3 (stereo not drawn) [Compound 143, 1-(5-(7-bromo-2-(difluoromethyl)-1H-benzo[d]imidazole-4-carbonyl)-2-(4-cyclopropyl-2-hydroxyphenyl)-2,3,4,5,5a,6,8,9-octahydro-7H-1,2,5,7-tetraazabenzo[cd]azulen-7-yl)prop-2-en-1-one]",1 to 100,> 3000,–,–
< 0.0015,0.0015 to 0.005,"C=CC(=O)N1CC(O)c2nn(-c3ccc(C4CCC4)cc3)c3c2C(C1)N(C(=O)c1ccc(Br)c2[nH]c(C(F)F)nc12)CC3 (stereo not drawn) [Compound 160, 1-(5-(7-bromo-2-(difluoromethyl)-1H-benzo[d]imidazole-4-carbonyl)-2-(4-cyclobutylphenyl)-9-hydroxy-2,3,4,5,5a,6,8,9-octahydro-7H-1,2,5,7-tetraazabenzo[cd]azulen-7-yl)prop-2-en-1-one]",1 to 100,> 3000,–,–
< 0.0015,0.0015 to 0.005,"C=CC(=O)N1CCc2nn(-c3ccc(C4CCC4)cc3O)c3c2C(C1)N(C(=O)c1ccc(Br)c2[nH]c(CO)nc12)CC3 (stereo not drawn) [Compound 75, 1-(5-(7-bromo-2-(hydroxymethyl)-1H-benzo[d]imidazole-4-carbonyl)-2-(4-cyclobutyl-2-hydroxyphenyl)-2,3,4,5,5a,6,8,9-octahydro-7H-1,2,5,7-tetraazabenzo[cd]azulen-7-yl)prop-2-en-1-one]",1 to 100,> 3000,–,–
0.0015 to 0.005,0.015 to 0.055,"C=CC(=O)N1CCc2nn(-c3ccc(C(C)C)cc3)c3c2C(C1)N(C(=O)c1ccc(Br)c2[nH]c(N4CCC4)nc12)CC3 (stereo not drawn) [Compound 9, 1-(5-(2-(azetidin-1-yl)-7-bromo-1H-benzo[d]imidazole-4-carbonyl)-2-(4-isopropylphenyl)-2,3,4,5,5a,6,8,9-octahydro-7H-1,2,5,7-tetraazabenzo[cd]azulen-7-yl)prop-2-en-1-one]",1 to 100,> 3000,–,–
< 0.0015,0.015 to 0.055,"C=CC(=O)N1CC(F)Oc2nn(-c3ccc(C(C)C)cc3)c3c2C(C1)N(C(=O)c1ccc(Br)c2[nH]cnc12)CC3 (stereo not drawn) [Compound 55, 1-(5-(7-bromo-1H-benzo[d]imidazole-4-carbonyl)-9-fluoro-2-(4-isopropylphenyl)-2,3,4,5,5a,6,8,9-octahydro-7H-10-oxa-1,2,5,7-tetraazacycloocta[cd]inden-7-yl)prop-2-en-1-one]",–,–,100 to 250,> 3000
< 0.0015,0.005 to 0.015,"C=CC(=O)N1CCc2nn(-c3ccc(C(C)C)cc3)c3c2C(C1)N(C(=O)c1cnc(C(F)(F)F)cc1N)CC3 (stereo not drawn) [Compound 150, 1-(5-(4-amino-6-(trifluoromethyl)nicotinoyl)-2-(4-isopropylphenyl)-2,3,4,5,5a,6,8,9-octahydro-7H-1,2,5,7-tetraazabenzo[cd]azulen-7-yl)prop-2-en-1-one]",1 to 100,> 3000,–,–
0.005 to 0.015,> 0.055,"C=CC(=O)N1CCc2nn(-c3ccc(C4CC4)cc3)c3c2C(C1)N(C(=O)c1ccc(Br)nc1C)CC3 (stereo not drawn) [Compound 114, 1-(5-(6-bromo-2-methylnicotinoyl)-2-(4-cyclopropylphenyl)-2,3,4,5,5a,6,8,9-octahydro-7H-1,2,5,7-tetraazabenzo[cd]azulen-7-yl)prop-2-en-1-one]",250 to 500,> 3000,–,–
